Patent US20220281848A1, “PYRAZOLE-SUBSTITUTED PYRROLIDINONES AS HERBICIDES” (FMC Corporation, priority 2019, published 2022)

Legend:
Type in all cases: in vivo
Conditions in all cases: after 13 d
corn (Zea mays, ZEAMX) [1] = assay: Test A pre-emergence, corn
Procedure, shortened: (§1)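 Values are percent plant damage 13 d after a pre-emergence spray (15.625, 62.5 or 250 g/ha; acetone/water with 0.5% Tween 20) applied to pots one day post-sowing, under glasshouse conditions of 24/16° C. and twice-daily watering.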

[2] = test system: giant foxtail (Setaria faberi, SETFA); assay: Test A post-emergence, giant foxtail
Procedure, shortened: (§2)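 Foliar application to 8-day-old seedlings at 15.625, 62.5 or 250 g/ha; phytotoxicity scored 0–100 after 13 d.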

[3] = test system: ivy-leaved morning glory (Ipomoea hederacea, IPOHE); assay: Test A pre-emergence, ivy-leaved morning glory
Procedure, shortened: as §1

corn (Zea mays, ZEAMX) [4] = assay: Test A post-emergence, corn
Procedure, shortened: as §2

[5] = test system: redroot pigweed (Amaranthus retroflexus, AMARE); assay: Test A pre-emergence, redroot pigweed
Procedure, shortened: as §1

[6] = test system: velvetleaf (Abutilon theophrasti, ABUTH); assay: Test A post-emergence, velvetleaf
Procedure, shortened: as §2

[7] = test system: barnyardgrass (Echinochloa crus-galli, ECHCG); assay: Test A pre-emergence, barnyardgrass
Procedure, shortened: as §1

[8] = test system: giant foxtail (Setaria faberi, SETFA); assay: Test A pre-emergence, giant foxtail
Procedure, shortened: as §1

[9] = test system: redroot pigweed (Amaranthus retroflexus, AMARE); assay: Test A post-emergence, redroot pigweed
Procedure, shortened: as §2

SMILES	damage to plant (100=total damage; 0=no damage) ZEAMX (corn (Zea mays, ZEAMX) [1]; Pre-Emergence at 15.625 g/ha)	damage to plant (100=total damage; 0=no damage) ZEAMX (corn (Zea mays, ZEAMX) [1]; Pre-Emergence at 62.5 g/ha)	damage to plant (100=total damage; 0=no damage) ZEAMX (corn (Zea mays, ZEAMX) [1]; Pre-Emergence at 250 g/ha)	damage to plant (100=total damage; 0=no damage) SETFA ([2]; Post-Emergence at 15.625 g/ha)	damage to plant (100=total damage; 0=no damage) SETFA ([2]; Post-Emergence at 62.5 g/ha)	damage to plant (100=total damage; 0=no damage) SETFA ([2]; Post-Emergence at 250 g/ha)	damage to plant (100=total damage; 0=no damage) IPOHE ([3]; Pre-Emergence at 15.625 g/ha)	damage to plant (100=total damage; 0=no damage) IPOHE ([3]; Pre-Emergence at 62.5 g/ha)	damage to plant (100=total damage; 0=no damage) IPOHE ([3]; Pre-Emergence at 250 g/ha)	damage to plant (100=total damage; 0=no damage) ZEAMX (corn (Zea mays, ZEAMX) [4]; Post-Emergence at 15.625 g/ha)	damage to plant (100=total damage; 0=no damage) ZEAMX (corn (Zea mays, ZEAMX) [4]; Post-Emergence at 62.5 g/ha)	damage to plant (100=total damage; 0=no damage) ZEAMX (corn (Zea mays, ZEAMX) [4]; Post-Emergence at 250 g/ha)	damage to plant (100=total damage; 0=no damage) AMARE ([5]; Pre-Emergence at 15.625 g/ha)	damage to plant (100=total damage; 0=no damage) AMARE ([5]; Pre-Emergence at 62.5 g/ha)	damage to plant (100=total damage; 0=no damage) AMARE ([5]; Pre-Emergence at 250 g/ha)	damage to plant (100=total damage; 0=no damage) ABUTH ([6]; Post-Emergence at 15.625 g/ha)	damage to plant (100=total damage; 0=no damage) ABUTH ([6]; Post-Emergence at 62.5 g/ha)	damage to plant (100=total damage; 0=no damage) ABUTH ([6]; Post-Emergence at 250 g/ha)	damage to plant (100=total damage; 0=no damage) ECHCG ([7]; Pre-Emergence at 15.625 g/ha)	damage to plant (100=total damage; 0=no damage) ECHCG ([7]; Pre-Emergence at 62.5 g/ha)	other results
CN1CC(c2cnn(C)c2C(F)(F)F)C(C(=O)Nc2cccc(F)c2F)C1=O (racemic) [Compound 25]	0	0	20	30	70	80	0	0	0	0	20	30	0	0	0	0	0	0	90	100	damage to plant (100=total damage; 0=no damage) ECHCG ([7]; Pre-Emergence at 250 g/ha): 100; damage to plant (100=total damage; 0=no damage) SETFA ([8]; Pre-Emergence at 15.625 g/ha): 80; damage to plant (100=total damage; 0=no damage) SETFA ([8]; Pre-Emergence at 62.5 g/ha): 90; damage to plant (100=total damage; 0=no damage) SETFA ([8]; Pre-Emergence at 250 g/ha): 100; damage to plant (100=total damage; 0=no damage) AMARE ([9]; Post-Emergence at 15.625 g/ha): 0; damage to plant (100=total damage; 0=no damage) AMARE ([9]; Post-Emergence at 62.5 g/ha): 0; damage to plant (100=total damage; 0=no damage) AMARE ([9]; Post-Emergence at 250 g/ha): 0
CN1CC(c2cc(Cl)n(C)n2)C(C(=O)Nc2ccc(F)c(F)c2F)C1=O (racemic) [Compound 31]	0	10	20	40	80	80	0	0	10	0	0	0	0	0	0	0	0	0	60	80	damage to plant (100=total damage; 0=no damage) ECHCG ([7]; Pre-Emergence at 250 g/ha): 80; damage to plant (100=total damage; 0=no damage) SETFA ([8]; Pre-Emergence at 15.625 g/ha): 40; damage to plant (100=total damage; 0=no damage) SETFA ([8]; Pre-Emergence at 62.5 g/ha): 80; damage to plant (100=total damage; 0=no damage) SETFA ([8]; Pre-Emergence at 250 g/ha): 80; damage to plant (100=total damage; 0=no damage) AMARE ([9]; Post-Emergence at 15.625 g/ha): 0; damage to plant (100=total damage; 0=no damage) AMARE ([9]; Post-Emergence at 62.5 g/ha): 10; damage to plant (100=total damage; 0=no damage) AMARE ([9]; Post-Emergence at 250 g/ha): 20
CCn1nc([C@H]2CN(C)C(=O)[C@@H]2C(=O)Nc2cccc(F)c2F)c2ccc(F)cc21 [Compound 4]	0	40	80	90	90	90	0	10	70	20	50	90	0	20	40	0	0	20	90	90	damage to plant (100=total damage; 0=no damage) ECHCG ([7]; Pre-Emergence at 250 g/ha): 100; damage to plant (100=total damage; 0=no damage) SETFA ([8]; Pre-Emergence at 15.625 g/ha): 80; damage to plant (100=total damage; 0=no damage) SETFA ([8]; Pre-Emergence at 62.5 g/ha): 90; damage to plant (100=total damage; 0=no damage) SETFA ([8]; Pre-Emergence at 250 g/ha): 90; damage to plant (100=total damage; 0=no damage) AMARE ([9]; Post-Emergence at 15.625 g/ha): 0; damage to plant (100=total damage; 0=no damage) AMARE ([9]; Post-Emergence at 62.5 g/ha): 20; damage to plant (100=total damage; 0=no damage) AMARE ([9]; Post-Emergence at 250 g/ha): 20
